According to patent US12187723B2 (BRISTOL-MYERS SQUIBB COMPANY, priority 2019, dated 2025):

Target: T1, human TLR7 (Homo sapiens, UniProt Q9NYK1)
T1 construct: host or cells: HEK-Blue cells
T1 sequence (Q9NYK1 27-1049): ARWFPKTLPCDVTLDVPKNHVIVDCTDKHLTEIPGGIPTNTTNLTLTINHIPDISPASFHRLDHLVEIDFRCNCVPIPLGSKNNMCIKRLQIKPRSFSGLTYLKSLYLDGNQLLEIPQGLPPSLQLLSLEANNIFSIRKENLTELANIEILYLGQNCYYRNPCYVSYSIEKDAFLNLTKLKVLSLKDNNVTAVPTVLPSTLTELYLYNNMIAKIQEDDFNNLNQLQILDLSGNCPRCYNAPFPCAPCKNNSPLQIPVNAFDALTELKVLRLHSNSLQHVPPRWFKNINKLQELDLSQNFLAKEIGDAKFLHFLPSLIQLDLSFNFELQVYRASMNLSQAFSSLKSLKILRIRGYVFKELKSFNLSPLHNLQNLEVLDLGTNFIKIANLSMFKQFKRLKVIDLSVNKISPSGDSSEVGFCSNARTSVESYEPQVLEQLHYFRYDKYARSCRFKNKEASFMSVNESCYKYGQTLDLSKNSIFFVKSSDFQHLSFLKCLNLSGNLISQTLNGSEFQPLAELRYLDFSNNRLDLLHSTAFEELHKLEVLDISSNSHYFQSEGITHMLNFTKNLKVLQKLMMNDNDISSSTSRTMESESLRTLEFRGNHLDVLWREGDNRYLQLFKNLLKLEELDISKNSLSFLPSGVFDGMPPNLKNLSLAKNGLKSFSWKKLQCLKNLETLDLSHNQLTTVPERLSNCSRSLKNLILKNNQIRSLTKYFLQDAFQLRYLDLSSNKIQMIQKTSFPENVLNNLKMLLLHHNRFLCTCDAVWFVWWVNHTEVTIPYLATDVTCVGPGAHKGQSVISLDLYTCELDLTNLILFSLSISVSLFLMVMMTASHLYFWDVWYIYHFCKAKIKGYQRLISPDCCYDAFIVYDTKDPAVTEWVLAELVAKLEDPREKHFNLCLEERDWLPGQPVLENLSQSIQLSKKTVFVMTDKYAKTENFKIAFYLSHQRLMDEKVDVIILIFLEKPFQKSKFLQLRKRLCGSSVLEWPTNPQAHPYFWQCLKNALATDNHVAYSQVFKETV
Experiment: TLR7 inhibition reporter assay (HEK-Blue SEAP)
Format: cell-based
Conditions: HEK-Blue cells overexpressing human TLR7, gardiquimod 7.5 μM, 22 hour incubation
Procedure: TLR7/8/9 Inhibition Reporter Assays
Briefly, cells are seeded into Greiner 384 well plates (15000 cells per well for TLR7, 20,000 for TLR8 and 25,000 for TLR9) and then treated with test compounds in DMSO to yield a final dose response concentration range of 0.05 nM-50 μM. […] After a 22 hour incubation at 37° C., 5% CO2, SEAP levels are determined with the addition of HEK-Blue™ Detection reagent (Invivogen), a cell culture medium that allows for detection of SEAP, according to manufacturer's specifications. The percent inhibition is determined as the % reduction in the HEK-Blue signal present in wells treated with agonist plus DMSO alone compared to wells treated with a known inhibitor.

Row | SMILES | IC50 [nM]
1 | CCC(CC)CN1CCC[C@@H](n2c(=O)[nH]c3cc(-c4cc(OC)c5ncnn5c4)c(C(C)C)cc32)C1 [Example 148, (R)-1-(1-(2-ethylbutyl)piperidin-3-yl)-6-isopropyl-5-(8-methoxy-[1,2,4]triazolo[1,5-a]pyridin-6-yl)-1,3-dihydro-2H-benzo[d]imidazol-2-one] | 0.49
2 | Cc1cc2c(cc1-c1cc(C)c3ncnn3c1)[nH]c(=O)n2[C@@H]1CCCN(CC#N)C1 [Example 96, (R)-2-(3-(6-methyl-5-(8-methyl-[1,2,4]triazolo[1,5-a]pyridin-6-yl)-2-oxo-2,3-dihydro-1H-benzo[d]imidazol-1-yl)piperidin-1-yl)acetonitrile] | 66.1
3 | CCc1cc2c(cc1-c1cc(OC)c3ncnn3c1)[nH]c(=O)n2[C@H]1CC[C@@H](NC2CCOCC2)CC1 [Example 166, 6-ethyl-5-(8-methoxy-[1,2,4]triazolo[1,5-a]pyridin-6-yl)-1-((1s,4s)-4-((tetrahydro-2H-pyran-4-yl)amino)cyclohexyl)-1,3-dihydro-2H-benzo[d]imidazol-2-one] | 1.9
4 | CCN1CCC[C@@H](n2c(=O)[nH]c3cc(-c4cc(OC)c5ncnn5c4)c(C(C)C)cc32)C1 (single isomer, unassigned) [Example 144] | 8.58
5 | COCCN1CCC[C@@H](n2c(=O)[nH]c3cc(-c4cc(OC)c5ncnn5c4)c(C(F)(F)F)cc32)C1 [Example 118, (R)-5-(8-methoxy-[1,2,4]triazolo[1,5-a]pyridin-6-yl)-1-(1-(2-methoxyethyl)piperidin-3-yl)-6-(trifluoromethyl)-1,3-dihydro-2H-benzo[d]imidazol-2-one] | 26.5
6 | COc1cc(-c2cc3[nH]c(=O)n([C@H]4CCCN(C5CCC5)C4)c3cc2C(C)C)cn2ncnc12 [Example 122, (S)-1-(1-cyclobutylpiperidin-3-yl)-6-isopropyl-5-(8-methoxy-[1,2,4]triazolo[1,5-a]pyridin-6-yl)-1,3-dihydro-2H-benzo[d]imidazol-2-one] | 15.1
7 | COc1cc(-c2cc3[nH]c(=O)n([C@@H]4CCCN(CC(C)(C)C)C4)c3cc2C(F)(F)F)cn2ncnc12 [Example 116, (R)-5-(8-methoxy-[1,2,4]triazolo[1,5-a]pyridin-6-yl)-1-(1-neopentylpiperidin-3-yl)-6-(trifluoromethyl)-1,3-dihydro-2H-benzo[d]imidazol-2-one] | 44.1
8 | Cc1cc2c(cc1-c1cc(C)c3ncnn3c1)[nH]c(=O)n2[C@@H]1CCCN(CC(N)=O)C1 [Example 94, (R)-2-(3-(6-methyl-5-(8-methyl-[1,2,4]triazolo[1,5-a]pyridin-6-yl)-2-oxo-2,3-dihydro-1H-benzo[d]imidazol-1-yl)piperidin-1-yl)acetamide] | 704
9 | Cc1c(-c2cc3[nH]c(=O)n([C@@H]4CCCN(C)C4)c3cc2C(C)C)cn2ncnc2c1C [Example 147, (R)-5-(7,8-dimethyl-[1,2,4]triazolo[1,5-a]pyridin-6-yl)-6-isopropyl-1-(1-methylpiperidin-3-yl)-1,3-dihydro-2H-benzo[d]imidazol-2-one] | 66.9
10 | Cc1cc(-c2ccc3c(c2)[nH]c(=O)n3C2CCN(C(C)C)CC2)cn2ncnc12 [Example 5, 1-(1-isopropylpiperidin-4-yl)-5-(8-methyl-[1,2,4]triazolo[1,5-a]pyridin-6-yl)-1,3-dihydro-2H-benzo[d]imidazol-2-one] | 1550
11 | COc1cc(-c2cc3[nH]c(=O)n([C@@H]4CCCN(C5COC5)C4)c3cc2C(C)C)cn2ncnc12 [Example 135, (R)-6-isopropyl-5-(8-methoxy-[1,2,4]triazolo[1,5-a]pyridin-6-yl)-1-(1-(oxetan-3-yl)piperidin-3-yl)-1,3-dihydro-2H-benzo[d]imidazol-2-one] | 26.3
12 | COc1cc(-c2cc3[nH]c(=O)n([C@@H]4CCCN(CC(=O)N(C)C)C4)c3cc2C)cn2ncnc12 [Example 99, (R)-2-(3-(5-(8-methoxy-[1,2,4]triazolo[1,5-a]pyridin-6-yl)-6-methyl-2-oxo-2,3-dihydro-1H-benzo[d]imidazol-1-yl)piperidin-1-yl)-N,N-dimethylacetamide] | 391
13 | Cc1cc2c(cc1-c1cc(C)c3ncnn3c1)[nH]c(=O)n2[C@@H]1CCCN(C(=O)CN(C)C)C1 [Example 104, (R)-1-(1-(dimethylglycyl)piperidin-3-yl)-6-methyl-5-(8-methyl-[1,2,4]triazolo[1,5-a]pyridin-6-yl)-1,3-dihydro-2H-benzo[d]imidazol-2-one] | 71
14 | Cc1cc(-c2ccc3c(c2)[nH]c(=O)n3C2CCN(C(=O)CN(C)C)CC2)cn2ncnc12 [Example 102, 1-(1-(dimethylglycyl)piperidin-4-yl)-5-(8-methyl-[1,2,4]triazolo[1,5-a]pyridin-6-yl)-1,3-dihydro-2H-benzo[d]imidazol-2-one] | > 3130
15 | CCC(CC)CN1CCC[C@@H](n2c(=O)[nH]c3cc(-c4cn5ncnc5c(C)c4C)c(C(C)C)cc32)C1 [Example 151, (R)-5-(7,8-dimethyl-[1,2,4]triazolo[1,5-a]pyridin-6-yl)-1-(1-(2-ethylbutyl)piperidin-3-yl)-6-isopropyl-1,3-dihydro-2H-benzo[d]imidazol-2-one] | 11
16 | COc1cc(-c2cc3[nH]c(=O)n(C4CCN(C5COC5)CC4)c3cc2C(C)C)cn2ncnc12 [Example 157, 6-isopropyl-5-(8-methoxy-[1,2,4]triazolo[1,5-a]pyridin-6-yl)-1-(1-(oxetan-3-yl)piperidin-4-yl)-1,3-dihydro-2H-benzo[d]imidazol-2-one] | 76.8
17 | COc1cc(-c2cc3[nH]c(=O)n([C@@H]4CCCN(C(C)C)C4)c3cc2C(F)(F)F)cn2ncnc12 [Example 111, (R)-1-(1-isopropylpiperidin-3-yl)-5-(8-methoxy-[1,2,4]triazolo[1,5-a]pyridin-6-yl)-6-(trifluoromethyl)-1,3-dihydro-2H-benzo[d]imidazol-2-one] | 23.6
18 | COc1cc(-c2cc3[nH]c(=O)n([C@@H]4CCCN(C5CCOCC5)C4)c3cc2C(C)C)cn2ncnc12 [Example 143, (R)-6-isopropyl-5-(8-methoxy-[1,2,4]triazolo[1,5-a]pyridin-6-yl)-1-(1-(tetrahydro-2H-pyran-4-yl)piperidin-3-yl)-1,3-dihydro-2H-benzo[d]imidazol-2-one] | 3.35
19 | CCN1CCC(n2c(=O)[nH]c3cc(-c4cc(C)c5ncnn5c4)cc(C)c32)CC1 [Example 108, 1-(1-ethylpiperidin-4-yl)-7-methyl-5-(8-methyl-[1,2,4]triazolo[1,5-a]pyridin-6-yl)-1,3-dihydro-2H-benzo[d]imidazol-2-one] | 11.5
20 | COc1cc(-c2cc3[nH]c(=O)n([C@H]4CCCN(CC(C)C)C4)c3cc2C(C)C)cn2ncnc12 [Example 129, (S)-1-(1-isobutylpiperidin-3-yl)-6-isopropyl-5-(8-methoxy-[1,2,4]triazolo[1,5-a]pyridin-6-yl)-1,3-dihydro-2H-benzo[d]imidazol-2-one] | 12.8
21 | CCC(CC)CN1CCC(n2c(=O)[nH]c3cc(-c4cc(OC)c5ncnn5c4)c(C(C)C)cc32)CC1 [Example 165, 1-(1-(2-ethylbutyl)piperidin-4-yl)-6-isopropyl-5-(8-methoxy-[1,2,4]triazolo[1,5-a]pyridin-6-yl)-1,3-dihydro-2H-benzo[d]imidazol-2-one] | 10.9
22 | COc1cc(-c2cc3[nH]c(=O)n([C@H]4CCCN(CCC(C)C)C4)c3cc2C(C)C)cn2ncnc12 [Example 132, (S)-1-(1-isopentylpiperidin-3-yl)-6-isopropyl-5-(8-methoxy-[1,2,4]triazolo[1,5-a]pyridin-6-yl)-1,3-dihydro-2H-benzo[d]imidazol-2-one] | 18.3
23 | COCCN1CCC[C@@H](n2c(=O)[nH]c3cc(-c4cc(C)c5ncnn5c4)c(C)cc32)C1 [Example 97, (R)-1-(1-(2-methoxyethyl)piperidin-3-yl)-6-methyl-5-(8-methyl-[1,2,4]triazolo[1,5-a]pyridin-6-yl)-1,3-dihydro-2H-benzo[d]imidazol-2-one] | 38.8
24 | COc1cc(-c2cc3[nH]c(=O)n([C@@H]4CCCN(C(C)C)C4)c3cc2C(C)C)cn2ncnc12 [Example 137, (R)-6-isopropyl-1-(1-isopropylpiperidin-3-yl)-5-(8-methoxy-[1,2,4]triazolo[1,5-a]pyridin-6-yl)-1,3-dihydro-2H-benzo[d]imidazol-2-one] | 0.74
